Reference: patent US20130345231A1, “ANTICANCER THERAPEUTIC AGENTS” (INDIANA UNIVERSITY RESEARCH AND TECHNOLOGY CORPORATION, priority 2011, published 2013)

Tests used:
Format in all cases: cell-based
Panc-1 and Paca2 cells = assay: MTT relative cytotoxicity toward pancreatic cancer lines (statements on both lines together); details: 72 hours; for cytotoxicity toward pancreatic cancer lines: 12.5, 25 and 50 μM
Description: (§1) FIG. 7: Relative cytotoxicity of the AOH compounds docking with caPCNA toward cultured Panc-1 (A) and Paca2 (B) cells. Relative cytotoxicity was determined by a colorimetric assay (MTT) measuring cell viability following a 72 hour incubation with the compounds indicated. Cells were exposed to DMSO/saline (series 1) and 12.5 (series 2) 25 (series 3) and 50 (series 4) μM of the indicated drug dissolved in DMSO for 72 hours prior to performing the MTT assay.

MCF-7 cells = details: for selectivity of toxicity, breast cancer versus non-malignant breast cells: at concentrations lower than 100 μM (10 μM), MCF7 vs MCF-10A
Description: The effect that a set of in silico selected compounds had on the viability of exponentially growing cultured malignant (MCF-7) and non-malignant (MCF-10A) breast cells was determined. Exponentially growing malignant (MCF-7) and non-malignant (MCF-10A) breast cells were incubated for 72 hours with 100 μM of the indicated compounds in growth media, before cell viability was determined colorimetrically using the MTT assay. […] Relative viability was determined by comparison to the viability of the cell cultures incubated in the presence of PBS/DMSO (vehicle) control instead of compound. […] Also were identified compounds that killed: both cell types with nearly equal preference; compounds that had little or no cytotoxic effect on either cell type, and compounds that preferentially killed the non-malignant breast cells.
The short- and long-term cytotoxic effects of each of the AOH compounds was determined essentially as described below for the caPeptide and related peptides, except that the initial cell based screening was determined by incubating cells for 72 hours with 100 μM of each compound. Compounds were classified into specific categories: 1) compounds that preferentially kill breast cancer but not non-malignant breast cells; 2) compounds that appear to kill both malignant and non-malignant breast cells without preference; 3) compounds that appear to have little or no toxicity toward either type of breast cell; and 4) compounds that appear to preferentially kill non-malignant breast cells. For those compounds falling into the first category, the short-term MTT viability assay was repeated using 10 μM of the selected AOH compound.
The MTT ((3-(4,5-Dimethylthiazol-2-yl)-2,5-diphenyltetrazolium bromide) assay was performed to determine the viability of cells exposed for various lengths of time to various peptide constructs containing or related to caPeptide. This assay determines the short-term affect each of the peptides has on cell viability. caPeptide's sequence is LGIPEQEY. The MTT assay was used to monitor the cytotoxic effect various caPeptides had on the viability of human MCF-7, MDA-MB436, HCC1937^(BRCA−) and HCC1937^(BRCA+) breast cancer cells. HCC1937^(BRCA−) cells harbor a hereditary mutation in the BRCA1 gene, that results in a non-functional gene product. These cells, are the parental wild-type to the HCC1937^+ cells, which express a fully functional BRCA1 human transgene. The assay was performed by seeding equal numbers of cells (5×10^3) into each of the wells of 96-well tissue culture plates for an overnight incubation to allow the cells to attach to the plates. In the morning, the cells in each of 3 individual wells were exposed to each of the various peptide constructs at the various concentrations indicated in the figures, for periods of 24, 48 and 72 hours. The MTT assay was then performed on the cells in each of the wells to determine the relative degree to which specific peptides were cytotoxic to each of these breast cancer cell lines. Percent viability at the end of the assay we determined colorimetrically by measuring the absorbance at 405 nm of the assay products formed in each well, averaging them, and then comparing the average absorbance of these assay products formed at each individual time period for each specific concentration of a specific peptide examined to the average absorbance of the 3 wells used to determine the viability of untreated cells exposed to PBS in place of peptide. These wells containing the PBS treated cells were assigned a relative viability of 100%, based upon the average absorbance of the reaction product formed in these wells, and the viability of the cells exposed to the various peptides under specific assay conditions was determined as a percentage of the absorbance produced by these PBS treated cells.

Panc-1 cells = test system: Panc-1 cells
Description: as §1
(§2) FIG. 8: 50 μM AOH-18, AOH-20, and AOH-39 were individually incubated with exponentially growing Panc-1 or Paca-2 cells for 72 hours, after which cell viability was determined colorimetrically using MTT.

Paca-2 cells = assay: MTT cell viability assay, Paca-2 cells, 72 hours
Description: as §1, §2

SMILES	cytotoxicity toward pancreatic cancer lines (Panc-1 and Paca2 cells)	CC50 (MCF-7 cells) [µM]	other results
CCNC(C)c1nc2ccccc2c(=O)n1Cc1ccccc1 (stereo not shown) [AOH-1]	concentration dependent cytotoxicity		
Cc1ccc(-n2c(C(C)N3CCNC(C)C3)nc3ccccc3c2=O)cc1 (stereo not shown) [AOH-16]	concentration dependent cytotoxicity		
CCn1c2ccccc2c2cc(CNCc3ccccc3)ccc21 [AOH-18]			relative sensitivity of MCF-7 cells among compounds (MCF-7 cells; 72 hours, MTT, rank by LC50): most sensitive; selectivity of toxicity, breast cancer versus non-malignant breast cells (MCF-7 cells): selectively toxic; LC50 (Panc-1 cells): not achieved over the concentration range tested; LC50 (Paca-2 cells): not achieved over the concentration range tested; loss in viability of both pancreatic cell lines (Panc-1 and Paca2 cells; at the MCF-7 LC50 concentration (~3 μM)): little or no loss in viability
CC(C)(C)c1ccc(CNC2CCN(Cc3ccccc3)CC2)cc1 [AOH-20]		3 to 40	selectivity of toxicity, breast cancer versus non-malignant breast cells (MCF-7 cells): selectively toxic; LC50 (Panc-1 cells): not achieved over the concentration range tested; LC50 (Paca-2 cells): not achieved over the concentration range tested
CCCCNC(=O)c1cc2occc2n1Cc1cc(C)ccc1C [AOH-34]	concentration dependent cytotoxicity		
CCCCNC(=O)c1cc2oc(C)cc2n1Cc1cc(C)ccc1C [AOH-36]		3 to 40	
Cc1nc(C)c(Cc2ccccc2F)c(N2CCN(CC(O)C(C)C)CC2)n1 (stereo not shown) [AOH-52]	concentration dependent cytotoxicity		
CCN(C(=O)Nc1cccc(C(F)(F)F)c1)C(C)c1nc2ccccc2c(=O)n1-c1ccc(F)cc1 (stereo not shown) [AOH-59]	concentration dependent cytotoxicity	3 to 40	
